Assay results taken from PubChem BioAssay (NCI).
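Each compound was tested at five concentrations against cells in 96-well plates for 48 hours. At the TGI there is no net growth.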

Tests used:
Assay in all cases: NCI anticancer screen, dose series, 48 h
[1] = system: COLO 205 colon
[2] = system: 786-0 renal
[3] = system: NCI-H226 lung
[4] = system: SK-MEL-28 melanoma
[5] = system: UACC-257 melanoma
[6] = system: SK-MEL-5 melanoma
[7] = system: HCT-116 colon
[8] = system: NCI-H23 lung
[9] = system: NCI-H522 lung
[10] = system: MDA-N
[11] = system: MDA-MB-435
[12] = system: HCT-15 colon
[13] = system: OVCAR-3 ovarian
[14] = system: U251 CNS
[15] = system: SK-MEL-2 melanoma
[16] = system: SN12C renal
[17] = system: SW-620 colon
[18] = system: SF-539 CNS
[19] = system: SF-268 CNS
[20] = system: SNB-75 CNS
[21] = system: HT29 colon
[22] = system: NCI/ADR-RES ovarian
[23] = system: HOP-92 NSCLC
[24] = system: SR leukemia
[25] = system: KM12 colon
[26] = system: CAKI-1 renal
[27] = system: DU-145 prostate
[28] = system: RPMI-8226 leukemia
[29] = system: MOLT-4 leukemia
[30] = system: A498 renal
[31] = system: LOX IMVI melanoma
[32] = system: OVCAR-5 ovarian
[33] = system: OVCAR-4 ovarian
[34] = system: HOP-62 NSCLC
[35] = system: SNB-19 CNS
[36] = system: TK-10 renal
[37] = system: UO-31 renal
[38] = system: HCC-2998 colon
[39] = system: EKVX NSCLC
[40] = system: NCI-H460 lung
[41] = system: SF-295 CNS
[42] = system: ACHN renal
[43] = system: M14 melanoma
[44] = system: HS 578T breast
[45] = system: MALME-3M melanoma
[46] = system: BT-549 breast
[47] = system: HL-60(TB) leukemia
[48] = system: MDA-MB-231 breast
[49] = system: A549 NSCLC
[50] = system: OVCAR-8 ovarian
[51] = system: IGROV1 ovarian
[52] = system: PC-3 prostate
[53] = system: MCF7 breast
[54] = system: SK-OV-3 ovarian
[55] = system: RXF 393 renal
[56] = system: UACC-62 melanoma
[57] = system: CCRF-CEM leukemia

`COc1cc2c(c(OC)c1OC)C(=O)c1c(O)cc(C)c(OC)c1C2=O` was tested, and the TGI [1] was over 100 µM, the TGI [2] was over 100 µM and the TGI [3] was over 100 µM. The TGI [4] was over 100 µM, the TGI [5] was over 100 µM and the TGI [6] was over 100 µM. For the same compound, the TGI [7] was over 100 µM, the TGI [8] was over 100 µM and the TGI [9] was over 100 µM. The TGI [10] was over 100 µM, the TGI [11] was over 100 µM and the TGI [12] was over 100 µM. It also gave a TGI [13] of over 100 µM, a TGI [14] of over 100 µM and a TGI [15] of over 100 µM. For the same compound, the TGI [16] was over 100 µM, the TGI [17] was over 100 µM and the TGI [18] was over 100 µM. It also gave a TGI [19] of over 100 µM, a TGI [20] of over 100 µM and a TGI [21] of over 100 µM. The TGI [22] was over 100 µM, the TGI [23] was over 100 µM and the TGI [24] was over 100 µM. It also gave a TGI [25] of over 100 µM, a TGI [26] of over 100 µM and a TGI [27] of over 100 µM. It also gave a TGI [28] of over 100 µM, a TGI [29] of over 100 µM and a TGI [30] of over 100 µM. For the same compound, the TGI [31] was over 100 µM, the TGI [32] was over 100 µM and the TGI [33] was over 100 µM. For the same compound, the TGI [34] was over 100 µM, the TGI [35] was over 100 µM and the TGI [36] was over 100 µM. The TGI [37] was over 100 µM, the TGI [38] was over 100 µM and the TGI [39] was over 100 µM. The TGI [40] was over 100 µM, the TGI [41] was over 100 µM and the TGI [42] was over 100 µM. It also gave a TGI [43] of over 100 µM, a TGI [44] of 70.1 µM and a TGI [45] of over 100 µM. The TGI [46] was over 100 µM, the TGI [47] was over 100 µM and the TGI [48] was over 100 µM. For the same compound, the TGI [49] was over 100 µM, the TGI [50] was over 100 µM and the TGI [51] was over 100 µM. The TGI [52] was over 100 µM and the TGI [53] was over 100 µM.
Compound `CCOc1ccc2nc(NC(=O)C(=O)C3C(=O)C(CC4C(=O)c5ccccc5C4=O)C(=O)CC3(C)C)sc2c1` (stereo unspecified) has a TGI [1] of over 100 µM, a TGI [2] of over 100 µM and a TGI [3] of over 100 µM. The TGI [54] was over 100 µM, the TGI [4] was over 100 µM and the TGI [55] was over 100 µM. It also gave a TGI [5] of over 100 µM, a TGI [6] of over 100 µM and a TGI [7] of over 100 µM. It also gave a TGI [8] of over 100 µM, a TGI [9] of over 100 µM and a TGI [56] of over 100 µM. It also gave a TGI [10] of over 100 µM, a TGI [11] of over 100 µM and a TGI [12] of over 100 µM. It also gave a TGI [13] of over 100 µM, a TGI [14] of over 100 µM and a TGI [15] of over 100 µM. The TGI [16] was over 100 µM, the TGI [17] was over 100 µM and the TGI [18] was over 100 µM. For the same compound, the TGI [19] was over 100 µM, the TGI [20] was over 100 µM and the TGI [21] was over 100 µM. It also gave a TGI [22] of over 100 µM, a TGI [23] of over 100 µM and a TGI [25] of over 100 µM. For the same compound, the TGI [26] was over 100 µM, the TGI [27] was over 100 µM and the TGI [29] was 90.4 µM. The TGI [31] was over 100 µM, the TGI [32] was over 100 µM and the TGI [33] was over 100 µM. The TGI [34] was over 100 µM, the TGI [35] was over 100 µM and the TGI [36] was over 100 µM. The TGI [37] was over 100 µM, the TGI [38] was over 100 µM and the TGI [39] was over 100 µM. The TGI [40] was over 100 µM, the TGI [41] was over 100 µM and the TGI [57] was 70.1 µM. The TGI [42] was over 100 µM, the TGI [43] was over 100 µM and the TGI [44] was over 100 µM. The TGI [46] was over 100 µM, the TGI [47] was 64.2 µM and the TGI [48] was over 100 µM. The TGI [49] was over 100 µM, the TGI [50] was over 100 µM and the TGI [51] was over 100 µM. It also gave a TGI [52] of over 100 µM and a TGI [53] of over 100 µM.
